Data as given in patent publication US7572827B2, “Use of angelicin and of its structural analogues for the treatment of thalassemia” (Universita' Degli Studi Di Ferrara, priority 2002, dated 2009).

Tests used:
human cell line K562 [1] = assay: Erythroid differentiation of K562 cells (benzidine-positive cells); type: cell-based; conditions: for Erythroid differentiation (%) = percentage of K562 cells that react positively to benzidine: optimal concentration of each compound (cytosine arabinoside 1 μM, bergapten 200 μM, angelicin 400 μM), six experiments, control 3-4
Method: (§1) The biological activity of angelicin was evaluated by examining the capacity of that compound to modulate the expression of genes for gamma-globin in the human cell line K562, which is capable of differentiating in the erythroid manner by expressing genes for gamma-globin if subjected to treatment with modifiers of the biological response that are suitable for the purpose (3, 18, 19).
(§2) The level of differentiation was evaluated by analyzing the positive reaction of the cells to benzidine (3). The production of haemoglobin was evaluated by electrophoresis on cellulose acetate and by colouring the gel with a solution based on benzidine/H2O2 (3). The expression of the genes encoding for gamma-globin was evaluated by quantitative RT-PCR (reverse transcriptase PCR) (3).

[2] = tested on: gamma-globin mRNA in K562 cells; assay: Gamma-globin mRNA accumulation in K562 cells by quantitative RT-PCR; type: cell-based, human; conditions: K562 cells treated for 6 days, cytosine arabinoside 1 μM, bergapten 200 μM, angelicin 400 μM, control = 1
Method: as §1, §2

[3] = tested on: gamma-globin mRNA in human erythroid precursors; assay: Gamma-globin mRNA accumulation in human erythroid precursors isolated from peripheral blood (Fibach two-stage culture), quantitative RT-PCR; type: cell-based; conditions: for Gamma-globin mRNA, increase compared with untreated control erythroid precursors: human erythroid precursors, angelicin 500 μM, hydroxyurea 120 μM, control = 1, quantitative RT-PCR
Source text: In order to check whether angelicin was also capable of stimulating the production of mRNA for gamma-globin in human erythroid precursors isolated from peripheral blood, the technique published by Fibach et al. (20, 21) was used. This technique provides for two stages: in the first stage, the cells isolated from peripheral blood of a subject who is healthy or suffering from a haemopoietic pathology, such as sickle cell anaemia or beta-thalassaemia, are sown in a culture medium to which 10% of conditioned medium derived from the vesicle carcinoma cell line 5637 has been added. The second stage consists in cultivating the isolated cells in a suitable culture medium, supplemented by the erythropoietin hormone, 30% bovine foetal serum, 2-mercaptoethanol, albumin, glutamine and desamethasone in order to permit the proliferation and maturing of stem cells of the erythroid type. In this stage the cells can be treated with potential HbF inducers.

human cell line K562 [4] = assay: Haemoglobin production in K562 cells (cellulose acetate electrophoresis, benzidine/H2O2 staining); type: cell-based; conditions: 400 μM angelicin for 6 days
Method: as §2

Structure (SMILES) | Erythroid differentiation (%) = percentage of K562 cells that react positively to benzidine (human cell line K562 [1]) | percentage of K562 cells that react positively to benzidine (human cell line K562 [1]; angelicin 400 μM, 6 days, control K562 cells 3-4%) | Gamma-globin mRNA, increase compared with untreated control K562 cells [2] | increase in the production of mRNA for gamma-globin compared with the same untreated cells ([3]; human erythroid precursors from peripheral blood treated with angelicin) [times] | Gamma-globin mRNA, increase compared with untreated control erythroid precursors [3] | chief haemoglobin produced (human cell line K562 [4])
O=c1ccc2ccc3occc3c2o1 [angelicin] | 55-60% | 55-60% | 44.94 | 20.53 | 20.53 | Hb Portland (alpha2gamma2)
COc1c2ccoc2cc2oc(=O)ccc12 [bergapten, 5-methoxypsoralen] | 50-60% |  | 3.48 |  |  | 
NC(=O)NO [hydroxyurea, reference compound] |  |  |  |  | 6.96 | 
Nc1ccn([C@@H]2O[C@H](CO)[C@@H](O)[C@@H]2O)c(=O)n1 [cytosine arabinoside, reference compound] | 75-80% |  | 3.24 |  |  | 
